From patent US20080260659A1, “Compositions” (GIVAUDAN SA, priority 2005, published 2008)

Legend:
Type in all cases: cell-based
[1] = test system: Aspergillus niger ATCC 16404 spores; experiment: Sporicidal effect of test compounds in water; settings: 0.1% test compound, 7 days
Method: Aspergillus niger ATCC 16404 spores are added to water to obtain a density of 3×10^5 spores 1 ml. In order to prepare the spores, the test strain is grown for 5 days on potato dextrose agar at room temperature. The spores are harvested with a solution containing 0.1% Tween 80, peptone 0.1% and NaCl 0.85% and the spore concentration is adjusted to the density indicated above.
Test compounds are dissolved in dipropyleneglycol to a concentration of 20%.
These stock solutions are added to 10 ml aliquots of the spore suspension to obtain a final concentration of the test compounds of 0.1%. The sporicidal effect is shown by a reduction of spore counts after 7 days.
The reduction factor is determined as follows. Aliquots of the above prepared suspension of microorganisms (here: spore suspension prepared as described above) are plated on a suitable agar medium (see above) and the developing colonies are counted both for samples with test compound and for a negative probe (water). The count of the negative control is divided by the count of the test compound and thereby the reduction factor is determined. A negative control (water) accordingly has a reduction factor of 1 (no effect on the microorganism).

[2] = test system: Staphylococcus aureus (DSMZ 799) and Pseudomonas aeruginosa (ATCC 15442); experiment: Bactericidal effect in a cosmetic cream (mixed inoculum 1:1); settings: cosmetic cream pH 5,5; 0.1% 4-hydroxybenzaldehyde, no parabens
Method: (§1) A cosmetic cream (pH 5,5) for application to the human skin is formulated as follows (in % w/w): […]
(§2) Glyceryl-monostearate, Sweet almond oil, Cetyl-stearyl-alcohol and Glyceryl dilaurate are melted at 80° C. Xanthan gum is dispersed into glycerine. Arginine is dissolved in water and heated to 75° C. The Xanthan gum—glycerin suspension is added to the heated water phase, the heated oil phase is added and the suspension is stirred at 300 rpm for 10 min whilst being cooled down slowly. Finally, a homogeneous emulsion is made with a high speed homogenizer at 5000 rpm.
(§3) Test samples of cream contain different amounts of preservatives and/or preservative enhancer. The preservative and preservative enhancer is added to an aliquot of 10 g of the cream in 50 ml tubes in a concentration as shown in the table below. After addition of the preservative/preservative enhancer, the cream is thoroughly mixed to achieve a homogeneous distribution.
After 1-3 days of equilibration of the cream (storage at room temperature to achieve a homogenous partitioning of compounds between oil and water phase), […]
Aliquots of these suspended and diluted samples are plated on tryptic soy agar supplemented with 0.5% Tween 80 and then incubated for 24 h at 37° C. Surviving bacteria are counted.
(§4) The count of the negative control is divided by the count of the probe and thereby the reduction factor is determined. […]

[3] = test system: Aspergillus niger ATCC 16404 spores; experiment: Sporicidal effect in a cosmetic cream; settings: cosmetic cream pH 5,5; 0.1% 4-hydroxybenzaldehyde, no parabens
Method: as §1, §2
as §3, with “distribution. […]” for “distribution.”
After regular test intervals, samples of 1 g cream are removed and added to 20 ml of a neutralizer solution containing 0.2% lecithin, 2% Tween 80 and 0.5% NaCl. […] After 48 h to 72 h the number of surviving colony forming units (and therefore surviving spores) are counted.
as §4

Row | SMILES | Sporicidal effect / reduction of spore counts [1] | reduction factor 24 h bacteria [2] | reduction factor 7 d fungal spores [3]
1 | CC(CC=O)CCc1ccccc1 (stereo not drawn) [Mefranal, 3-methyl-5-phenylpentanal, reference compound] | significant sporicidal effect | – | –
2 | O=Cc1ccc(O)cc1 [4-hydroxybenzaldehyde] | No significant reduction of spore counts | 1 | 1
3 | COc1ccc(C=O)cc1 [4-methoxy-benzaldehyde] | No significant reduction of spore counts | – | –
4 | C=CCCCCCCCCO [9-decenol, reference compound] | significant sporicidal effect | – | –
